For the assay, the system named is SARS-CoV-2. The assay can be described thus: microbe, parasite or virus in culture. The conditions noted are these: Severe acute respiratory syndrome coronavirus 2, Vero C1008, 48 h.

Take `CS(=O)(=O)c1ccc2c(c1)N(CCCN1CCC(C(N)=O)CC1)c1ccccc1S2` [METOPIMAZINE]: the IC50 is greater than 20 µM. Moreover, the IC50 (read-out: pIC50 (converted)) was greater than 20 µM.
In turn, `O=C(Cn1ccnc1[N+](=O)[O-])NCCO` [ETANIDAZOLE] yielded an IC50 greater than 20 µM. Besides, for the setting “read-out: pIC50 (converted)”, the IC50 is greater than 20 µM.
Consider `O=C(Nc1nc2cccc(-c3ccc(CN4CCS(=O)(=O)CC4)cc3)n2n1)C1CC1` [FILGOTINIB], for which the IC50 was greater than 20 µM. Further, the IC50 (read-out: pIC50 (converted)) is greater than 20 µM.
On to `COCC(=O)NC/C=C/c1ccc2ncnc(Nc3ccc(Oc4ccc(C)nc4)c(C)c3)c2c1` [CP-724714], for which the IC50 was greater than 20 µM. For the same molecule, the IC50 (read-out: pIC50 (converted)) was greater than 20 µM.
Molecule `NS(=O)(=O)NCCNc1nonc1/C(=N/O)Nc1ccc(F)c(Br)c1` [EPACADOSTAT] returned an IC50 greater than 20 µM. Moreover, the IC50 (read-out: pIC50 (converted)) is greater than 20 µM.
Turning to `C[C@]12C[C@H](O)[C@H]3[C@@H](CCC4=CC(=O)CC[C@@]43C)[C@@H]1CC[C@@H]2C(=O)CO` [CORTICOSTERONE], the IC50 was greater than 20 µM. Also, the IC50 (read-out: pIC50 (converted)) is greater than 20 µM.
`C[C@@H](N)[C@@H](O)c1ccccc1` [(1S,2R)-PHENYLPROPANOLAMINE]: the IC50 was greater than 20 µM. Besides, for the setting “read-out: pIC50 (converted)”, the IC50 was greater than 20 µM.
As for `CC(C)c1ccc(C(=O)NCCOc2ccc(C(=O)O)cc2)cc1`, the IC50 is greater than 20 µM. For the same molecule, the IC50 (read-out: pIC50 (converted)) was greater than 20 µM.
The molecule `CC[C@@H]1CN(C(=O)NCC(F)(F)F)C[C@@H]1c1cnc2cnc3[nH]ccc3n12` [UPADACITINIB] yielded an IC50 greater than 20 µM. Besides, the IC50 (read-out: pIC50 (converted)) was greater than 20 µM.
Consider `Cn1ccnc1S` [METHIMAZOLE], for which the IC50 is greater than 20 µM. The IC50 (read-out: pIC50 (converted)) was greater than 20 µM.
Molecule `O=P(O)(O)OC(CO)CO` [GLYCERYLPHOSPHATE] had an IC50 greater than 20 µM. In addition, the IC50 (read-out: pIC50 (converted)) was greater than 20 µM.
For `CN(C)S(=O)(=O)c1ccc2c(c1)N(C1CN3CCC1CC3)c1ccccc1S2` (centres undefined) [QUISULTAZINE], the IC50 is greater than 20 µM. For the same molecule, under “read-out: pIC50 (converted)”, the IC50 is greater than 20 µM.
`CC(C)(N)Cc1ccccc1` [PHENTERMINE]: the IC50 was greater than 20 µM. In addition, for the setting “read-out: pIC50 (converted)”, the IC50 is greater than 20 µM.
In turn, `C[N+]1([O-])[C@@H]2C[C@@H](OC(=O)[C@H](CO)c3ccccc3)C[C@H]1[C@@H]1O[C@@H]12` (some centres undefined) showed an IC50 greater than 20 µM. The IC50 (read-out: pIC50 (converted)) is greater than 20 µM.
Regarding `O=C(NOCC1CC1)c1ccc(F)c(F)c1Nc1ccc(I)cc1Cl` [CI-1040], the IC50 was greater than 20 µM. Besides, for the setting “read-out: pIC50 (converted)”, the IC50 was greater than 20 µM.
In the case of `CC1(CN2CCC(n3c(=O)[nH]c4ccccc43)CC2)OCc2ccccc2-n2cccc21` (centres undefined) [ZALDARIDE], the IC50 was greater than 20 µM. Moreover, the IC50 (read-out: pIC50 (converted)) was greater than 20 µM.
With `CC(C)NCC(O)c1ccc(NS(C)(=O)=O)cc1` (centres undefined) [SOTALOL], the IC50 is greater than 20 µM. Besides, the IC50 (read-out: pIC50 (converted)) is greater than 20 µM.
`CO[C@H]1/C=C/O[C@@]2(C)Oc3c(C)c(O)c4c(O)c(c(/C=N/N5CCN(C)CC5)c(O)c4c3C2=O)NC(=O)/C(C)=C\C=C\[C@H](C)[C@H](O)[C@@H](C)[C@@H](O)[C@@H](C)[C@H](OC(C)=O)[C@@H]1C` [RIFAMPIN] had an IC50 greater than 20 µM. Further, the IC50 (read-out: pIC50 (converted)) is greater than 20 µM.
`COc1ccc(C(CN(C)C)C2(O)CCCCC2)cc1` (centres undefined) [VENLAFAXINE]: the IC50 was greater than 20 µM. Also, the IC50 (read-out: pIC50 (converted)) is greater than 20 µM.
`CN1C(=O)CC(=O)N(c2ccccc2)c2cc(Cl)ccc21` [CLOBAZAM]: the IC50 is greater than 20 µM. Besides, the IC50 (read-out: pIC50 (converted)) is greater than 20 µM.
Molecule `[2H]C([2H])(OC(=O)C(C)C)[C@@]1(CCl)O[C@@H](n2ccc(N)nc2=O)[C@H](F)[C@@H]1OC(=O)C(C)C` came in with an IC50 greater than 20 µM. Further, under “read-out: pIC50 (converted)”, the IC50 is greater than 20 µM.
Take `O=C(CCCN1CCC(C(=O)c2ccc(F)cc2)CC1)c1ccc(F)cc1` [LENPERONE]: the IC50 was greater than 20 µM. In addition, the IC50 (read-out: pIC50 (converted)) was greater than 20 µM.

The record behind these values is ChEMBL document CHEMBL4651402, “Screening of ~5500 FDA-approved drugs and clinical candidates for anti-SARS-CoV-2 activity” (2021).
